What was measured:
mice fed a high fat diet = test: Obesity-associated senescent cell accumulation, macrophage infiltration and hypertrophy of white adipose tissue (high-fat diet mice); assay type: in vivo; details: high-fat diet 8 weeks, BPTES 0.25 mg/20 g/200 μl i.p. 3 times a week in latter 4 weeks
Experimental: Eight-week-old male mice (C57BL/6N) were maintained on a high-fat diet (HFD32, CLEA Japan) or a normal diet for 8 weeks. […] Then, white adipose tissue was collected from mice, and the accumulation of senescent cells was examined by SA-β-gal staining, and macrophage infiltration was examined by immunostaining with the anti-F4/80 antibody. In situ staining with SA-β-gal and the determination of the abundance ratio of SA-β-gal positive cells were carried out as described in 2-5-2. The degree of macrophage infiltration was determined as described in 2-5-1. The adipocyte size was measured with a BZ-X analyzer (Keyence).

aged mice (76 weeks old) = test: Age-associated dysfunction of kidney, lung, heart and liver in aged mice; assay type: in vivo; details: BPTES 0.25 mg/20 g/200 μl intraperitoneally, 1 month
Excerpt: It is examined whether removal of senescent cells by inhibition of glutaminolysis could improve aging or age-associated organ dysfunction.
The kidney, lung, liver, and heart were embedded with an OCT compound, thereby preparing frozen sections. Thereafter, tissue staining with hematoxylin-eosin (H&E), tissue staining with a Masson trichrome (MT) reagent, a periodic acid Schiff (PAS) reagent (Fisher Scientific), or immunostaining with DAB (3,3′-diaminobenzidine tetrahydrochloride) (DAKO) using an anti-F4-80 antibody (CST) was performed. After staining, tissue sections were observed under a microscope.
Kidney glomerulosclerosis was evaluated for 40 glomeruli per individual based on PAS-positive intensity and range. In addition, the serum urea concentration and creatinine concentration were measured using the Urea Assay kit (Abcam) and the Creatinine Assay kit (Abcam), respectively.
The degree of lung fibrosis was assessed by MT staining. […] In addition, when the MT-stained area was quantified by a BZ-X analyzer (Keyence), the degree of fibrosis was improved in the lungs of BPTES-treated mice as compared with the lungs of control mice (FIG. 7B, top).
For the heart, MT staining of heart tissue sections was performed so as to assess the degree of fibrosis (FIG. 8A). In addition, the heart weight was weighed, and the cardiomyocyte size was measured with a BZ-X analyzer (Keyence). As for the heart, the degree of fibrosis in the heart of BPTES-treated mice was improved as compared with the control mice (FIG. 8B).
Liver tissue sections were immunostained with an anti-F4/80 antibody (FIG. 9A) so as to assess the degree of macrophage infiltration. The degree of macrophage infiltration in the liver of BPTES-treated mice was improved compared to control mice (FIG. 9B).

[1] = system: ammonia production in senescent cells; test: Intracellular ammonia quantification (ammonia assay kit); assay type: cell-based, human; details: BPTES final concentration 10 μM, 24 hours
Excerpt: Senescent cells and normal cells were separately seeded in 10-cm culture dishes such that approximately 50,000 cells were in each dish. […] Thereafter, the amount of ammonia in cells was quantified using the ammonia assay kit (abcam).

senescent cells [2] = test: Effect of mPTP inhibitors on cell death of BPTES-treated cells (trypan blue count); assay type: cell-based, human; details: BPTES 10 μM alone
Experimental: The previous reports have shown that lowering intracellular pH causes apoptosis-independent cell death through the opening of mitochondrial permeability transition pore (mPTP) by the BNIP3 protein. Therefore, the effects of mPTP inhibitors (DUB and CsA) on BPTES-treated cells were examined.
(§1) Senescent cells and normal cells were separately seeded in 6-cm culture dishes such that approximately 10,000 cells were in each dish. […] Thereafter, the cells were stained with trypan blue every 24 hours, and the number of viable cells was counted using a hemocytometer.

[3] = system: p16 mRNA (marker of senescent cells); test: Removal of senescent cells in vivo: p16 mRNA by qPCR in organs of aged mice; details: 96-week-old C57BL6/N male mice, 12.5 mg/kg body weight once a week for 1 month
Experimental: Then, each mouse was dissected, RNA was extracted by homogenizing the heart, brain, kidney, and liver, and total RNA was prepared using the RNeasy mini kit (Qiagen) according to the attached protocol and reverse transcribed into cDNA using the ReverTra Ace qPCR RT kit (Takara). Using the obtained cDNA, the expression level of p16 mRNA, which is a marker of senescent cells, was analyzed by qPCR using Power SYBR Green PCR Master Mix (Applied Biosystems). The p16 mRNA expression level was corrected by the value of GAPDH. Primers for detecting the p16 mRNA expression level are shown below.

[4] = system: normal cells (normal human fibroblasts HCA2); test: Viable cell count (trypan blue) of normal cells treated with glutaminase inhibitor; assay type: cell-based; details: BPTES final concentration 10 μM, 3 days
Experimental: (§2) Senescent cells and normal cells were seeded in 6-cm culture dishes such that approximately 10,000 cells were in each dish.

[5] = system: senescent cells (senescence-induced normal human fibroblasts HCA2); test: Viable cell count (trypan blue) of senescent cells treated with glutaminase inhibitor; assay type: cell-based
Experimental: RO3306 (SIGMA-ALDRICH) (final concentration: 9 μM) was added to normal human fibroblasts (HCA2), followed by culture at 37° C. and 5% CO2 for 16 hours. Next, culture was performed at 37° C. and 5% CO2 for 8 hours in a culture medium containing RO3306 (final concentration: 9 μM) and Nutlin-3a (SIGMA-ALDRICH) (final concentration: 10 μM), and then culture was performed at 37° C. and 5% CO2 for 48 hours in a culture medium containing Nutlin-3a (final concentration: 10 μM). Culture was performed at 37° C. and 5% CO2 for 9 days while replacing the medium with a medium containing BI2536 (SIGMA-ALDRICH) (final concentration: 100 nM) every 3 days. Thereafter, senescence induction was carried out by performing culture at 37° C. and 5% CO2 for 9 days while replacing the medium with a normal medium (FIG. 1A).
as §2

senescent cells [6] = test: Cell viability of BPTES-treated cells in weakly basic medium (trypan blue count); assay type: cell-based, human; details: BPTES 10 μM
Experimental: Next, the pH of the medium of BPTES-treated cells was made weakly basic (pH 8.0 or pH 8.5), and the cell viability was examined.
as §1

[7] = system: intracellular pH in senescent cells; test: Intracellular pH measurement; assay type: cell-based, human; set-up: dose or concentration left out as unconfirmed; details: BPTES final concentration, 24 hours; normal level about 7.4
Experimental: Next, senescent cells and normal cells were separately seeded in 6-cm well plates such that approximately 50,000 cells were in each plate. […] The medium was removed, culture was performed at 37° C. and 5% CO2 for 10 minutes in a HEPES solution containing […] (DOJINDO LABORATORIES) at a final concentration of 3 μM, and washing with the HEPES solution was performed three times. Thereafter, luminescence was measured with a plate reader. In order to determine the pH value, the amount of luminescence of cells treated with the HEPES solution (pH 6.0 to 7.6) containing nigericin at a final concentration of 10 μM was corrected.

[8] = system: S6K protein T389 phosphorylation (indicator of activation of mTOR); test: Western blotting of S6K protein T389 phosphorylation in senescent cells; assay type: cell-based, human
Experimental: Further, the molecular mechanism of SASP inhibition was analyzed. […] Cell extracts were prepared from the cultured cells using Laemmli-buffer (2% SDS, 10% glycerol, 5% 2-mercaptoethanol, 0.002% bromophenol blue, and 62.5 mM Tris HCl at pH 6.8). Cell extracts (20 to 50 μg) were separated by SDS-PAGE, and after transcription to PVDF membrane, Western blotting was performed using an antibody to the T389 phosphorylation site of the […] protein (CST), an antibody to the S6K protein (CST), and an antibody to the p16 protein (abcam), and detection was performed by ECL.

[9] = system: ApoE knockout mice on atherogenetic diet; test: Obesity-associated atherosclerosis in ApoE knockout mice (Sudan IV staining of aorta); assay type: in vivo; details: atherogenetic diet 8 weeks, BPTES 0.25 mg/20 g/200 μl i.p. 3 times a week in latter 4 weeks
Experimental: C57BL/6J ApoE knockout mice (8 weeks old) were maintained on an atherogenetic diet (D12108C, Research Diets Inc.) for 8 weeks. […] In addition, C57BL/6J wild-type male mice (8 weeks old) were maintained on a normal diet as controls. All aortas except the arterial arch were cleanly depleted of adventitial fat, incised, and fixed flat in 4% […] at 25° C. for 12 hours. The aorta was washed with 70% ethanol for 5 minutes, incubated in 0.5% Sudan IV (in 1:1 acetone/ethanol) for 5 minutes, and then washed 3 times with 80% ethanol for 1 minute. Plaque formed in the aorta was stained with Sudan IV, the Sudan IV-positive area was quantified with ImageJ, and the plaque number was counted under a microscope.

[10] = system: IL-6 and IL-8 mRNA expression; test: qPCR of SASP factors IL-6 and IL-8 mRNA in senescent cells; assay type: cell-based, human; details: BPTES 2.5 μM, 24 hours
Experimental: After reverse transcription from total RNA into cDNA using the SuperScript II cDNA synthesis kit (Invitrogen) was performed, qPCR analysis was performed using the Power SYBR Green PCR Master Mix (Applied Biosystems) so as to measure the IL-6 and IL-8 expression levels. Primers for detecting the IL-6 and IL-8 mRNA expression levels are shown below.

[11] = system: mice on choline-deficient L-amino acid-defined high-fat diet; test: Liver dysfunction associated with non-alcoholic steatohepatitis (choline-deficient L-amino acid-defined high-fat diet mice); assay type: in vivo; details: NASH diet 8 weeks, BPTES 0.25 mg/20 g/200 μl i.p. 3 times a week in latter 4 weeks
Experimental: Eight-week-old male mice (C57BL/6N) were maintained on a choline-deficient L-amino acid-defined high-fat diet (A06071302, Research Diets Inc.) for 8 weeks. […] The serum AST level and the hydroxyproline (OH-Pro) level in the liver were measured by the AST assay kit (Abcam) and the Hydroxyproline assay kit (Abcam), respectively. In addition, the expression levels of p16, KGA, and IL-6 were measured by qPCR. Primers for qPCR are shown below.

O=C(Cc1ccccc1)Nc1nnc(CCSCCc2nnc(NC(=O)Cc3ccccc3)s2)s1 [BPTES, bis-2-(5-phenylacetamido-1,3,4-thiadiazol-2-yl)ethyl sulfide]
accumulation of senescent cells associated with obesity (SA-β-gal, white adipose tissue) (mice fed a high fat diet): reduced
degree of macrophage infiltration in white adipose tissue (anti-F4/80) (mice fed a high fat diet): reduced
size of adipocytes associated with obesity (mice fed a high fat diet): reduced
weight of white adipose tissue (mice fed a high fat diet): reduced
cardiomyocyte size (aged mice (76 weeks old)): smaller than that of control mice
heart weight (aged mice (76 weeks old)): lighter than that of young mice
serum creatinine concentration (aged mice (76 weeks old)): reduced
serum urea concentration (aged mice (76 weeks old)): reduced
degree of fibrosis in the heart (MT staining) (aged mice (76 weeks old); vs control mice): improved
degree of glomerulosclerosis (PAS staining) (aged mice (76 weeks old); vs control mice): improved
degree of lung fibrosis (MT-stained area) (aged mice (76 weeks old); vs control mice): improved
degree of macrophage infiltration in the liver (anti-F4/80 immunostaining) (aged mice (76 weeks old); vs control mice): improved
ammonia production in senescent cells [1]: suppresses the increased ammonia production in senescent cells to the same level as in normal cells
cell death seen with BPTES treatment (senescent cells [2]): at least 90%
p16 mRNA expression in the brain [3]: decreased
p16 mRNA expression in the heart [3]: decreased
p16 mRNA expression in the kidney [3]: decreased
p16 mRNA expression in the liver [3]: decreased
number of cells (viable cells) [4]: increase in the number of cells
impact on the survival of senescent cells ([5]; BPTES final concentration 2.5 μM): little impact
cell death seen with BPTES treatment (senescent cells [6]; medium not weakly basic (pH 7.4)): at least 90%
cell death with BPTES under weakly basic pH conditions (senescent cells [6]; medium pH 8.0 or pH 8.5): about 30%
intracellular pH in senescent cells [7]: about 6.0
phosphorylation of the S6K protein T389 ([8]; BPTES 2.5 μM, 24 hours): inhibits phosphorylation
aortic plaque area (Sudan IV-positive area) [9]: reduces
aortic plaque number [9]: reduces
IL-6 mRNA expression [10]: inhibits mRNA expression
IL-8 mRNA expression [10]: inhibits mRNA expression
IL-6 expression level in the liver (qPCR) [11]: lowers
KGA expression level in the liver (qPCR) [11]: lowers
hydroxyproline (OH-Pro) level in the liver [11]: lowers
p16 expression level in the liver (qPCR) [11]: lowers
serum AST level [11]: lowers

COC(=O)CCC(=O)C(=O)OC [DM-KG]
rescue of senescent cell-selective cell death caused by BPTES ([5]; BPTES 10 μM plus transmembrane α-ketoglutaric acid): could hardly rescue
rescue of the BPTES inhibitory effect on S6K T389 phosphorylation ([8]; BPTES plus DM-KG): rescued
